Results as given in ChEMBL document CHEMBL4507326, “Data for DCP probe TP-030-2” (2021).

What was measured:
[1] = molecular target: Gamma-aminobutyric acid type B receptor subunit 1 (Homo sapiens) (UniProt Q9UBS5); experiment: Inhibition of GABAB1A at compound concentration of 10.0 uM in the Eurofins-Panlabs radioligand binding assay (Eurofins_assay_228610); design: ligand concentration 4 nM; conditions: Compound concentration 10.0 uM
[2] = molecular target: Neuropeptide Y receptor type 1 (Homo sapiens) (UniProt P25929); experiment: Inhibition of Neuropeptide Y Y1 at 10 µM in the Eurofins-Panlabs radioligand binding assay (Eurofins_assay_257010); conditions: Compound concentration 10.0 uM
Chain of Neuropeptide Y receptor type 1 (Homo sapiens) (P25929 whole entry): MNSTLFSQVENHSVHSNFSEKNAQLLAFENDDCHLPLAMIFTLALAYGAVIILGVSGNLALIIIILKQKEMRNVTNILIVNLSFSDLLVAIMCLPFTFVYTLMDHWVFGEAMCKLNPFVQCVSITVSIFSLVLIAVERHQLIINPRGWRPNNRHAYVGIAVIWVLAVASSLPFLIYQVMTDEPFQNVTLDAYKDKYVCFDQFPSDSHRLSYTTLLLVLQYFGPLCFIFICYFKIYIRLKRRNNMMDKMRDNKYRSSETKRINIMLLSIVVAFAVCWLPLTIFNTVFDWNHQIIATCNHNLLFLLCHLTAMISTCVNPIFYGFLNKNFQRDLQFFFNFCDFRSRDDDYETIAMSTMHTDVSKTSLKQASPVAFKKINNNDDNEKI

[3] = molecular target: Neuropeptide Y receptor type 2 (Homo sapiens) (UniProt P49146); experiment: Inhibition of Neuropeptide Y Y2 at 10 µM in the Eurofins-Panlabs radioligand binding assay (Eurofins_assay_257110); conditions: Compound concentration 10.0 uM
Chain of Neuropeptide Y receptor type 2 (Homo sapiens) (P49146 whole entry): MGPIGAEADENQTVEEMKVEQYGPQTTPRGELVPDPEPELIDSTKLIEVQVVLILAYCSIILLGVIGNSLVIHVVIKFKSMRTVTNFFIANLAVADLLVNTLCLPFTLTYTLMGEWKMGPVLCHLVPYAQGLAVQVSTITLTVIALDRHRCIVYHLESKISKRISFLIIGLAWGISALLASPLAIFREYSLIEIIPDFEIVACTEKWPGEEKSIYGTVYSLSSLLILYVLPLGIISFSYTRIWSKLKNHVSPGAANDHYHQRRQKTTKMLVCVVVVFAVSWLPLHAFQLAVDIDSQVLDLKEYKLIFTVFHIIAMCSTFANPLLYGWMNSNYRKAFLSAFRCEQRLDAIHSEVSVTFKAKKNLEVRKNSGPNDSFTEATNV

[4] = molecular target: ATP-sensitive inward rectifier potassium channel 11 (Cricetulus griseus) (UniProt A0A3L7HHE1); experiment: Inhibition of Potassium Channel [KATP] at 10 µM in the Eurofins-Panlabs radioligand binding assay (Eurofins_assay_265600); conditions: Cricetinae; Compound concentration 10.0 uM
Chain of ATP-sensitive inward rectifier potassium channel 11 (Cricetulus griseus) (A0A3L7HHE1 as listed by the source): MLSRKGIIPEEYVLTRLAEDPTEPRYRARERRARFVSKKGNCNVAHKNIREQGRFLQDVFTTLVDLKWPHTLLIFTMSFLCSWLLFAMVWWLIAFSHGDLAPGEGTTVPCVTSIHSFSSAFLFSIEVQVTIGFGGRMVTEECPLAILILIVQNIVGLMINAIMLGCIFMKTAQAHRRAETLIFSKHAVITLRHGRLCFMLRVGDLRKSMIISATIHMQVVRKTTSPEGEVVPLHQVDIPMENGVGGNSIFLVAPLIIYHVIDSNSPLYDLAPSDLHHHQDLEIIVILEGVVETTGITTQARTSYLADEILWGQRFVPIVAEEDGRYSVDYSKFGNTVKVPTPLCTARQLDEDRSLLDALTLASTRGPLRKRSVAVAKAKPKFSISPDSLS

hERG (KCNH2) = hERG (KCNH2) (Homo sapiens, UniProt Q12809); experiment: Inhibition of Potassium Channel hERG at 10 µM in the Eurofins-Panlabs radioligand binding assay (Eurofins_assay_265900); design: ligand concentration 1.5 nM, non-specific ligand with concentration Astemizole, incubation time 60 min, incubation temperature 25 °C; conditions: HEK-293 cells expressing human recombinant hERG, probe [3H] Astemizole, compound concentration 10 uM
[5] = molecular target: Cyclin-dependent kinase 9 (Homo sapiens, UniProt P50750); experiment: CDK9(CDK9CGS1) Takeda global kinase panel
[6] = molecular target: Dual specificity protein kinase CLK4 (Homo sapiens, UniProt Q9HAZ1); experiment: CLK4(CLK4IGF1) Takeda global kinase panel
[7] = molecular target: Casein kinase I isoform gamma-1 (Homo sapiens, UniProt Q9HCP0); experiment: CK1gamma1(C1G1LGI1) Takeda global kinase panel
[8] = molecular target: Dual specificity tyrosine-phosphorylation-regulated kinase 2 (Homo sapiens, UniProt Q92630); experiment: DYRK2(DYR2LGY1) Takeda global kinase panel
Chain of Dual specificity tyrosine-phosphorylation-regulated kinase 2 (Q92630 whole entry): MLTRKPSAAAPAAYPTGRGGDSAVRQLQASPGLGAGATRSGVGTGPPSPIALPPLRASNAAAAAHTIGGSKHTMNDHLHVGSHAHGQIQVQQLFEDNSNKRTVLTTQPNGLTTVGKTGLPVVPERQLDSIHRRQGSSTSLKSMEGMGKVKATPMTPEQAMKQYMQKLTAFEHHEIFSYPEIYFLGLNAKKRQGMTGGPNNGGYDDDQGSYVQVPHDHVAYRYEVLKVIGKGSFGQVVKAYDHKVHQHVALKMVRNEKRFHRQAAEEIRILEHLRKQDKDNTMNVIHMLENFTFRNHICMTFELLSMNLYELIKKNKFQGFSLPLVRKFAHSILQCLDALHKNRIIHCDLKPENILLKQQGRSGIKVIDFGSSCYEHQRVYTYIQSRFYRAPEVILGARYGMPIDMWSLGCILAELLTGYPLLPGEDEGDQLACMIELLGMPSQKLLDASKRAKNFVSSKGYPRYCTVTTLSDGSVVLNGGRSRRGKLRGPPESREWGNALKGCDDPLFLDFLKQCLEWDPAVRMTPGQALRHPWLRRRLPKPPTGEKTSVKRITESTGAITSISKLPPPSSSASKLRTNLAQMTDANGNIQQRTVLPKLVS

Ephrin type-A receptor 3 = Ephrin type-A receptor 3 (Homo sapiens, UniProt P29320); experiment: EphA3(EPA3LGD5) Takeda global kinase panel
Ephrin type-A receptor 4 = Ephrin type-A receptor 4 (Homo sapiens, UniProt P54764); experiment: EphA4(EPA4LGF1) Takeda global kinase panel
Chain of Ephrin type-A receptor 4 (P54764 whole entry): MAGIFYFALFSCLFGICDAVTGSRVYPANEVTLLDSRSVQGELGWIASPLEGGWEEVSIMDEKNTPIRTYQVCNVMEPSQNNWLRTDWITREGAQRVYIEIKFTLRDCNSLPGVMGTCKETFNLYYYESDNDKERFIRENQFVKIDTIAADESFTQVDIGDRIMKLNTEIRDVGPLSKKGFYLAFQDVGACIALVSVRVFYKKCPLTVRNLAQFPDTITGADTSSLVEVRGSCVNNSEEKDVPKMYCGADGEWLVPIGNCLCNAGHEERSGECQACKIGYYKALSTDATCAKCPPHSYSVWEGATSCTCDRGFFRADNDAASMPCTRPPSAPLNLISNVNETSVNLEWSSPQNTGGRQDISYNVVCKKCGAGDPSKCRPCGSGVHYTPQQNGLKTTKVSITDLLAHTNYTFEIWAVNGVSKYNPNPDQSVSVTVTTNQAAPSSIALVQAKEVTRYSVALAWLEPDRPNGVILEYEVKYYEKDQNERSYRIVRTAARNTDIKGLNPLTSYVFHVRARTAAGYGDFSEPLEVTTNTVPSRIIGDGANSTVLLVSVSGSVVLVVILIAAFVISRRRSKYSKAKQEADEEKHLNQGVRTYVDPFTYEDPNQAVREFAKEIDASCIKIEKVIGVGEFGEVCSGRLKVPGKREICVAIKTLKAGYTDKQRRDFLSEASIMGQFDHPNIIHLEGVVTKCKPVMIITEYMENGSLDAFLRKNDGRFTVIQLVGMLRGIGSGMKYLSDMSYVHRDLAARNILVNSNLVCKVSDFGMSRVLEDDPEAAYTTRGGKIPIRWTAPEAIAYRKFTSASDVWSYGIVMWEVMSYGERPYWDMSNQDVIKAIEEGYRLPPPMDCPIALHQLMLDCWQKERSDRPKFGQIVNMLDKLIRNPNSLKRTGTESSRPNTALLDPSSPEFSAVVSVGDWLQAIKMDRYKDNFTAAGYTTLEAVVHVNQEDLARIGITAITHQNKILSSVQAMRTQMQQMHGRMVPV

Ephrin type-A receptor 8 = Ephrin type-A receptor 8 (Homo sapiens, UniProt P29322); experiment: EphA8(EPA8LGF1) Takeda global kinase panel
[9] = molecular target: Tyrosine-protein kinase Fes/Fps (Homo sapiens, UniProt P07332); experiment: Fes(FES1LHY1) Takeda global kinase panel
[10] = molecular target: Tyrosine-protein kinase Fgr (Homo sapiens, UniProt P09769); experiment: Fgr(FGR1LGF1) Takeda global kinase panel
[11] = molecular target: Homeodomain-interacting protein kinase 4 (Homo sapiens, UniProt Q8NE63); experiment: HIPK4(HIP4LHY1) Takeda global kinase panel
[12] = molecular target: Interleukin-1 receptor-associated kinase 3 (Homo sapiens, UniProt Q9Y616); experiment: IRAK3(IRK3PFE1) Takeda global kinase panel
[13] = molecular target: Vascular endothelial growth factor receptor 2 (Homo sapiens, UniProt P35968); experiment: KDR(KDR1CGY1) Takeda global kinase panel
LIM domain kinase 1 = LIM domain kinase 1 (Homo sapiens, UniProt P53667); experiment: LIMK1(LIM1LGY1) Takeda global kinase panel
[14] = molecular target: Mitogen-activated protein kinase kinase kinase 11 (Homo sapiens, UniProt Q16584); experiment: MLK3(M311LGF1) Takeda global kinase panel
Chain of Mitogen-activated protein kinase kinase kinase 11 (Q16584 whole entry): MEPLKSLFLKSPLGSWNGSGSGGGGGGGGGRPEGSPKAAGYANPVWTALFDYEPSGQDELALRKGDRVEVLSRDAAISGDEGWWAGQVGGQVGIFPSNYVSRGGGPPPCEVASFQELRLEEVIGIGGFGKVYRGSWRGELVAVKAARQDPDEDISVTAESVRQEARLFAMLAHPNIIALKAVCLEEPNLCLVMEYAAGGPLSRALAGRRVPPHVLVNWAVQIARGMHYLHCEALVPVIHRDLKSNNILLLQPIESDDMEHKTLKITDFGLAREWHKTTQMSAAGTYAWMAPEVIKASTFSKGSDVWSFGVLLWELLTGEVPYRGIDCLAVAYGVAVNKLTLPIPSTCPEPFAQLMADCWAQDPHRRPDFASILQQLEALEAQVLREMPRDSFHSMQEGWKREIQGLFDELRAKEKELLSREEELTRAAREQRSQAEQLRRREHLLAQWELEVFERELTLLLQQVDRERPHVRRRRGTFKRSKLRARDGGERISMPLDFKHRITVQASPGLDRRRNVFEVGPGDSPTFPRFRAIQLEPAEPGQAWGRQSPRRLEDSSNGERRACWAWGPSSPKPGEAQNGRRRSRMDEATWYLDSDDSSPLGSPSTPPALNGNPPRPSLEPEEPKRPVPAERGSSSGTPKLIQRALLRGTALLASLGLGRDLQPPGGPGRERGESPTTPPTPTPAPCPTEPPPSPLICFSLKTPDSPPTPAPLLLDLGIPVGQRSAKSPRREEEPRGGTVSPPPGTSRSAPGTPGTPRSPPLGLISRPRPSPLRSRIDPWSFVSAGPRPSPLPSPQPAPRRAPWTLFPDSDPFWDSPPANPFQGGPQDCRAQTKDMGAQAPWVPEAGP

[15] = molecular target: Mitogen-activated protein kinase 8 (Homo sapiens, UniProt P45983); experiment: JNK1(MAP8LGF1) Takeda global kinase panel
[16] = molecular target: Mixed lineage kinase domain-like protein (Homo sapiens, UniProt Q8NB16); experiment: MLKL(MLKLPHY1) Takeda global kinase panel
Chain of Mixed lineage kinase domain-like protein (Q8NB16 whole entry, the tested form may be a part): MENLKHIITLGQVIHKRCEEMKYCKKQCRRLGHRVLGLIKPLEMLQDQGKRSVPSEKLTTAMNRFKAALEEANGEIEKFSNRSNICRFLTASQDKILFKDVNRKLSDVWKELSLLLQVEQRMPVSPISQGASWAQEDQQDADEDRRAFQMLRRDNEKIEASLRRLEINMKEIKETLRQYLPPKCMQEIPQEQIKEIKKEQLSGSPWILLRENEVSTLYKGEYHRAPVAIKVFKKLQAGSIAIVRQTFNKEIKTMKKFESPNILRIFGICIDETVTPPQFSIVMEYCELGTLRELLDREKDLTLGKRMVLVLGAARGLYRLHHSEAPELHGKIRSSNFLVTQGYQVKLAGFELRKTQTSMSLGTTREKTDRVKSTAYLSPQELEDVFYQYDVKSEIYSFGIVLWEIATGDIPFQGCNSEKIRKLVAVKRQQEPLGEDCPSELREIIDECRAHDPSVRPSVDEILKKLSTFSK

[17] = molecular target: Serine/threonine-protein kinase pim-2 (Homo sapiens, UniProt Q9P1W9); experiment: Pim2(PIM2LHY1) Takeda global kinase panel
[18] = molecular target: Calcium/calmodulin-dependent protein kinase type 1B (Homo sapiens, UniProt Q6P2M8); experiment: CaMK1beta(PNCKLGRI) Takeda global kinase panel
[19] = molecular target: cAMP-dependent protein kinase catalytic subunit beta (Homo sapiens, UniProt P22694); experiment: PKAbeta(PRCBLGF1) Takeda global kinase panel
[20] = molecular target: Serine/threonine-protein kinase D2 (Homo sapiens, UniProt Q9BZL6); experiment: PKD2(PRD2LHY1) Takeda global kinase panel
[21] = molecular target: Serine/threonine-protein kinase TBK1 (Homo sapiens, UniProt Q9UHD2); experiment: TBK1(TBK1CGF1) Takeda global kinase panel
[22] = molecular target: Serine/threonine-protein kinase tousled-like 1 (Homo sapiens, UniProt Q9UKI8); experiment: TLK1(TLK1LGP1) Takeda global kinase panel
[23] = molecular target: 5-hydroxytryptamine receptor 1D (Homo sapiens) (UniProt P28221); conditions: Compound concentration 10.0 uM
Chain of 5-hydroxytryptamine receptor 1D (Homo sapiens) (P28221 whole entry): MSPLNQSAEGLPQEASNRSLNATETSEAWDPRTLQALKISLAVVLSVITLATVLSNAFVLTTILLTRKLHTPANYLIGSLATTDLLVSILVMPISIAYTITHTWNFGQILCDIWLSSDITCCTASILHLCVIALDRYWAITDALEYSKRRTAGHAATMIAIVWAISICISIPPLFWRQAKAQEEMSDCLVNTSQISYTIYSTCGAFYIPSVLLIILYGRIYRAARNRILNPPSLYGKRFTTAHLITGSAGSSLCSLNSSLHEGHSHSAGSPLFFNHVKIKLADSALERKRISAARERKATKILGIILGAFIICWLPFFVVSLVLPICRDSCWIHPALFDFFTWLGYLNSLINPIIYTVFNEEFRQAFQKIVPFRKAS

[24] = molecular target: D(1B) dopamine receptor (Homo sapiens) (UniProt P21918); conditions: Compound concentration 10.0 uM
[25] = molecular target: Sodium-dependent dopamine transporter (Homo sapiens) (UniProt Q01959); conditions: Compound concentration 10.0 uM
[26] = molecular target: Alpha-2B adrenergic receptor (Homo sapiens) (UniProt P18089); conditions: Compound concentration 10.0 uM
[27] = molecular target: T1, GABA-A receptor; anion channel (Rattus norvegicus) (UniProt O09028+P15431+P18506+P18508+P19969+P20236+P23574+P23576+P28471+P28473+P30191+P62813+P63079+P63138+Q91ZM7+Q9ES14); conditions: Compound concentration 10.0 uM
[28] = molecular target: B2 bradykinin receptor (Homo sapiens) (UniProt P30411); conditions: Compound concentration 10.0 uM
[29] = molecular target: D(1A) dopamine receptor (Homo sapiens) (UniProt P21728); conditions: Compound concentration 10.0 uM
[30] = molecular target: Endothelin-1 receptor (Homo sapiens) (UniProt P25101); conditions: Compound concentration 10.0 uM
[31] = molecular target: Endothelin receptor type B (Homo sapiens) (UniProt P24530); conditions: Compound concentration 10.0 uM
[32] = molecular target: T1, GABA-A receptor; anion channel (Rattus norvegicus); conditions: Compound concentration 10.0 uM; remark: listed apart in the source
[33] = molecular target: Delta-type opioid receptor (Homo sapiens) (UniProt P41143); conditions: Compound concentration 10.0 uM
[34] = molecular target: Kappa-type opioid receptor (Homo sapiens) (UniProt P41145); conditions: Compound concentration 10.0 uM
Chain of Kappa-type opioid receptor (Homo sapiens) (P41145 whole entry): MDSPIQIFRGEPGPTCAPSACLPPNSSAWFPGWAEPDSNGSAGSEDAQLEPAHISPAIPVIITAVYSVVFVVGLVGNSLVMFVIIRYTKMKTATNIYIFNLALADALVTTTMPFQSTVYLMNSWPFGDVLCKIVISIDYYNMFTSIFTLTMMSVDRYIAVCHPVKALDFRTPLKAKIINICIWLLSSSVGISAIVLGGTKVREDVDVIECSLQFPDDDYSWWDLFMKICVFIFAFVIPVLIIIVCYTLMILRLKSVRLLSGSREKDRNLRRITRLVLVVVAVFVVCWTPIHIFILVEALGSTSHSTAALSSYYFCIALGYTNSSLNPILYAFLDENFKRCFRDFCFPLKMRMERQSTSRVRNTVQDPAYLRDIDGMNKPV

Rattus norvegicus = organism: Rattus norvegicus; conditions: Compound concentration 10.0 uM
[35] = molecular target: Sodium-dependent serotonin transporter (Homo sapiens) (UniProt P31645); conditions: Compound concentration 10.0 uM

CN1C(=O)[C@@H](N2CCc3c(nn(Cc4ccccc4)c3Br)C2=O)COc2ccccc21 [TP-030-2]
inhibition [1]: 1%
inhibition [2]: 10%
inhibition [3]: -6%
inhibition [4]: 14%
inhibition at 60 min, 10 µM (hERG (KCNH2)): 7% (not active)
IC50 [5]: 1000 nM
IC50 [6]: 1000 nM
IC50 [7]: 1000 nM
IC50 [8]: 1000 nM
IC50 (Ephrin type-A receptor 3): 1000 nM
IC50 (Ephrin type-A receptor 4): 1000 nM
IC50 (Ephrin type-A receptor 8): 1000 nM
IC50 [9]: 1000 nM
IC50 [10]: 1000 nM
IC50 [11]: 1000 nM
IC50 [12]: 1000 nM
IC50 [13]: 1000 nM
IC50 (LIM domain kinase 1): 1000 nM
IC50 [14]: 1000 nM
IC50 [15]: 1000 nM
IC50 [16]: 1000 nM
IC50 [17]: 1000 nM
IC50 [18]: 1000 nM
IC50 [19]: 1000 nM
IC50 [20]: 1000 nM
IC50 [21]: 1000 nM
IC50 [22]: 1000 nM
inhibition [23]: -5.06%
inhibition [24]: 41.7%
inhibition [25]: -8.33%
inhibition [26]: 59.6%
inhibition [27]: 33.9%
inhibition [28]: 0%
inhibition [29]: 9%
inhibition [30]: -3%
inhibition [31]: -7%
inhibition [32]: 24%
inhibition [33]: 8%
inhibition [34]: 3%
inhibition (Rattus norvegicus): -6%
inhibition [35]: 5%
